Data published in ChEMBL document CHEMBL2429777, “Synthesis and antibacterial activity evaluation of 2,6-bis(6-substituted-1,2,4-triazolo[3,4-b][1,3,4]thiadiazol-3-yl)pyridine derivatives” (2013).
Values after ≈ are worked out from the molar mass of the structure shown.

What was measured:
[1] = system: Pseudomonas aeruginosa; assay: Antibacterial activity against Pseudomonas aeruginosa by serial dilution method; format: functional
[2] = system: Escherichia coli; assay: Antibacterial activity against Escherichia coli by serial dilution method
[3] = system: Bacillus subtilis; assay: Antibacterial activity against Bacillus subtilis by serial dilution method; format: functional
[4] = system: Streptococcus pneumoniae; assay: Antibacterial activity against Streptococcus pneumoniae by serial dilution method; format: functional
[5] = system: Staphylococcus aureus; assay: Antibacterial activity against Staphylococcus aureus by serial dilution method; format: functional
[6] = system: Pseudomonas aeruginosa; assay: Antibacterial activity against Pseudomonas aeruginosa at 250 ug/tube after 24 hrs by cylinder-plate method; format: functional
[7] = system: Escherichia coli; assay: Antibacterial activity against Escherichia coli at 250 ug/tube after 24 hrs by cylinder-plate method; format: functional
[8] = system: Streptococcus pneumoniae; assay: Antibacterial activity against Streptococcus pneumoniae at 250 ug/tube after 24 hrs by cylinder-plate method; format: functional
[9] = system: Bacillus subtilis; assay: Antibacterial activity against Bacillus subtilis at 250 ug/tube after 24 hrs by cylinder-plate method; format: functional
[10] = system: Staphylococcus aureus; assay: Antibacterial activity against Staphylococcus aureus at 250 ug/tube after 24 hrs by cylinder-plate method; format: functional
[11] = system: Streptococcus pneumoniae; assay: Antibacterial activity against Streptococcus pneumoniae at 100 ug/tube after 24 hrs by cylinder-plate method; format: functional
[12] = system: Bacillus subtilis; assay: Antibacterial activity against Bacillus subtilis at 100 ug/tube after 24 hrs by cylinder-plate method; format: functional
[13] = system: Pseudomonas aeruginosa; assay: Antibacterial activity against Pseudomonas aeruginosa at 100 ug/tube after 24 hrs by cylinder-plate method; format: functional
[14] = system: Escherichia coli; assay: Antibacterial activity against Escherichia coli at 100 ug/tube after 24 hrs by cylinder-plate method; format: functional
[15] = system: Staphylococcus aureus; assay: Antibacterial activity against Staphylococcus aureus at 100 ug/tube after 24 hrs by cylinder-plate method; format: functional

Row | Compound | MIC [1] | MIC [2] | MIC [3] | MIC [4] | MIC [5] | diameter of the inhibition zone (DIZ) [6] | diameter of the inhibition zone (DIZ) [7] | diameter of the inhibition zone (DIZ) [8] | diameter of the inhibition zone (DIZ) [9] | diameter of the inhibition zone (DIZ) [10] | inhibition zone (IZ) [11] | inhibition zone (IZ) [12] | diameter of the inhibition zone (DIZ) [13] | diameter of the inhibition zone (DIZ) [14] | diameter of the inhibition zone (DIZ) [11] | diameter of the inhibition zone (DIZ) [12] | diameter of the inhibition zone (DIZ) [15]
1 | Clc1cccc(-c2nn3c(-c4cccc(-c5nnc6sc(-c7cccc(Cl)c7)nn56)n4)nnc3s2)c1 | 64 µg/mL (≈ 117 µM) | 64 µg/mL (≈ 117 µM) | 64 µg/mL (≈ 117 µM) | 32 µg/mL (≈ 58.3 µM) | 64 µg/mL (≈ 117 µM) | 14 mm | 15 mm | 16 mm | 13 mm | 14 mm |  |  |  |  |  |  | 
2 | COc1ccc(-c2nn3c(-c4cccc(-c5nnc6sc(-c7ccc(OC)cc7)nn56)n4)nnc3s2)cc1 | 128 µg/mL (≈ 237 µM) | 32 µg/mL (≈ 59.3 µM) | 64 µg/mL (≈ 119 µM) | 64 µg/mL (≈ 119 µM) | 64 µg/mL (≈ 119 µM) | 12 mm | 16 mm | 14 mm | 14 mm | 14 mm |  |  |  |  |  |  | 
3 | Cc1nn2c(-c3cccc(-c4nnc5sc(C)nn45)n3)nnc2s1 | 128 µg/mL (≈ 360 µM) | 64 µg/mL (≈ 180 µM) | > 128 µg/mL | 128 µg/mL (≈ 360 µM) | 128 µg/mL (≈ 360 µM) | 12 mm | 14 mm | 12 mm | 10 mm | 12 mm |  |  |  |  |  |  | 
4 | c1cc(-c2nnc3sc(-c4ccco4)nn23)nc(-c2nnc3sc(-c4ccco4)nn23)c1 | 32 µg/mL (≈ 69.6 µM) | 64 µg/mL (≈ 139 µM) | 128 µg/mL (≈ 279 µM) | 128 µg/mL (≈ 279 µM) | 64 µg/mL (≈ 139 µM) | 15 mm | 15 mm | 12 mm | 12 mm | 14 mm |  |  |  |  |  |  | 
5 | Ic1cccc(-c2nn3c(-c4cccc(-c5nnc6sc(-c7cccc(I)c7)nn56)n4)nnc3s2)c1 | 64 µg/mL (≈ 87.5 µM) | 32 µg/mL (≈ 43.8 µM) | 64 µg/mL (≈ 87.5 µM) | 64 µg/mL (≈ 87.5 µM) | 32 µg/mL (≈ 43.8 µM) | 15 mm | 18 mm | 14 mm | 14 mm | 16 mm |  |  |  |  |  |  | 
6 | c1cc(-c2nnc3sc(-c4ccncc4)nn23)nc(-c2nnc3sc(-c4ccncc4)nn23)c1 | 128 µg/mL (≈ 266 µM) | 64 µg/mL (≈ 133 µM) | > 128 µg/mL | 128 µg/mL (≈ 266 µM) | 128 µg/mL (≈ 266 µM) | 13 mm | 14 mm | 13 mm | 10 mm | 12 mm |  |  |  |  |  |  | 
7 | c1cncc(-c2nn3c(-c4cccc(-c5nnc6sc(-c7cccnc7)nn56)n4)nnc3s2)c1 | 128 µg/mL (≈ 266 µM) | 64 µg/mL (≈ 133 µM) | 128 µg/mL (≈ 266 µM) | 128 µg/mL (≈ 266 µM) | 128 µg/mL (≈ 266 µM) | 13 mm | 14 mm | 13 mm | 11 mm | 12 mm |  |  |  |  |  |  | 
8 | GENTAMICIN | 1 µg/mL |  | 2 µg/mL | 2 µg/mL | 2 µg/mL |  |  |  |  |  | 21 mm | 22 mm |  |  |  |  | 
9 | O=[N+]([O-])c1cccc(-c2nn3c(-c4cccc(-c5nnc6sc(-c7cccc([N+](=O)[O-])c7)nn56)n4)nnc3s2)c1 | 128 µg/mL (≈ 225 µM) | 64 µg/mL (≈ 112 µM) | 128 µg/mL (≈ 225 µM) | 64 µg/mL (≈ 112 µM) | 128 µg/mL (≈ 225 µM) | 12 mm | 14 mm | 14 mm | 11 mm | 13 mm |  |  |  |  |  |  | 
10 | CC1(C)S[C@@H]2[C@H](NC(=O)[C@H](N)c3ccccc3)C(=O)N2[C@H]1C(=O)[O-].[Na+] [AMPICILLIN SODIUM] | 2 µg/mL |  | 0.5 µg/mL | 2 µg/mL | 1 µg/mL |  |  |  |  |  |  |  | 17 mm | 17 mm | 18 mm | 21 mm | 23 mm
11 | Clc1ccc(-c2nn3c(-c4cccc(-c5nnc6sc(-c7ccc(Cl)cc7)nn56)n4)nnc3s2)cc1 | 32 µg/mL (≈ 58.3 µM) | 32 µg/mL (≈ 58.3 µM) | 64 µg/mL (≈ 117 µM) | 32 µg/mL (≈ 58.3 µM) | 32 µg/mL (≈ 58.3 µM) | 15 mm | 17 mm | 16 mm | 14 mm | 15 mm |  |  |  |  |  |  | 
12 | Cc1ccc(-c2nn3c(-c4cccc(-c5nnc6sc(-c7ccc(C)cc7)nn56)n4)nnc3s2)cc1 | > 128 µg/mL | 64 µg/mL (≈ 126 µM) | > 128 µg/mL | 128 µg/mL (≈ 252 µM) | 128 µg/mL (≈ 252 µM) | 10 mm | 14 mm | 13 mm | 10 mm | 13 mm |  |  |  |  |  |  | 
13 | c1ccc(-c2nn3c(-c4cccc(-c5nnc6sc(-c7ccccc7)nn56)n4)nnc3s2)cc1 | > 128 µg/mL | 128 µg/mL (≈ 267 µM) | > 128 µg/mL | 128 µg/mL (≈ 267 µM) | 128 µg/mL (≈ 267 µM) | 10 mm | 12 mm | 12 mm | 10 mm | 12 mm |  |  |  |  |  |  | 
14 | O=[N+]([O-])c1ccc(-c2nn3c(-c4cccc(-c5nnc6sc(-c7ccc([N+](=O)[O-])cc7)nn56)n4)nnc3s2)cc1 | 128 µg/mL (≈ 225 µM) | 64 µg/mL (≈ 112 µM) | 128 µg/mL (≈ 225 µM) | 64 µg/mL (≈ 112 µM) | 128 µg/mL (≈ 225 µM) | 12 mm | 15 mm | 15 mm | 11 mm | 13 mm |  |  |  |  |  |  | 
